According to patent US11840686B2, “Modulation of prekallikrein (PKK) expression” (Ionis Pharmaceuticals, Inc., priority 2013, dated 2023):
Strand notation (5' to 3'): a small letter for the sugar, then the base; units joined by * are phosphorothioate-linked, units joined directly phosphodiester-linked; [ ] holds rarer units or linkages, { } end groups; capitals alone tell only the bases. e = 2'-O-(2-methoxyethyl) (MOE); [5mC] = 5-methylcytosine; d = 2'-deoxy (DNA)

Test system: human PKK mRNA
Assay: Antisense inhibition of human PKK mRNA in HepaRG cells, 5,000 nM (Example 2)
Assay type: cell-based
Settings: HepaRG cells, electroporation with 5,000 nM antisense oligonucleotide, approximately 24 hours, PKK mRNA by RT-PCR (RTS3454), relative to untreated control cells; Table 5 experiment
Outline: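 qRT-PCR (RTS3454) read-out, RIBOGREEN-normalized; % inhibition vs untreated cells. HepaRG, 20,000 cells/well, electroporation, 5,000 nM ASO, ~24 h.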

Substance	% inhibition [%]
547303 (antisense eT*eT*e[5mC]*eT*e[5mC]*d[5mC]*dA*dT*dG*dT*d[5mC]*dA*dT*dT*dG*eA*eT*eT*eG*eA) [compound 547303]	72
547304 (antisense e[5mC]*eT*eT*eT*eT*d[5mC]*dT*d[5mC]*d[5mC]*dA*dT*dG*dT*d[5mC]*dA*eT*eT*eG*eA*eT) [compound 547304]	71
547305 (antisense eA*e[5mC]*e[5mC]*eA*eA*dA*d[5mC]*d[5mC]*dT*dT*dT*dT*d[5mC]*dT*d[5mC]*e[5mC]*eA*eT*eG*eT) [compound 547305]	47
547306 (antisense eA*eG*e[5mC]*eA*eA*d[5mC]*d[5mC]*dA*dA*dA*d[5mC]*d[5mC]*dT*dT*dT*eT*e[5mC]*eT*e[5mC]*e[5mC]) [compound 547306]	62
547307 (antisense eG*eA*eA*eG*e[5mC]*dA*dA*d[5mC]*d[5mC]*dA*dA*dA*d[5mC]*d[5mC]*dT*eT*eT*eT*e[5mC]*eT) [compound 547307]	58
547308 (antisense eT*e[5mC]*eA*eA*eG*dA*dA*dG*d[5mC]*dA*dA*d[5mC]*d[5mC]*dA*dA*eA*e[5mC]*e[5mC]*eT*eT) [compound 547308]	66
547309 (antisense e[5mC]*eT*eT*eT*e[5mC]*dA*dA*dG*dA*dA*dG*d[5mC]*dA*dA*d[5mC]*e[5mC]*eA*eA*eA*e[5mC]) [compound 547309]	71
547310 (antisense eA*eT*e[5mC]*eT*eT*dT*d[5mC]*dA*dA*dG*dA*dA*dG*d[5mC]*dA*eA*e[5mC]*e[5mC]*eA*eA) [compound 547310]	81
547311 (antisense e[5mC]*eA*e[5mC]*eT*eA*dT*d[5mC]*dT*dT*dT*d[5mC]*dA*dA*dG*dA*eA*eG*e[5mC]*eA*eA) [compound 547311]	71
547312 (antisense eA*eT*eG*eT*eA*d[5mC]*dT*dT*dT*dT*dG*dG*d[5mC]*dA*dG*eG*eG*eT*eT*e[5mC]) [compound 547312]	46
547313 (antisense eG*eT*eT*e[5mC]*eG*dA*dT*dG*dT*dA*d[5mC]*dT*dT*dT*dT*eG*eG*e[5mC]*eA*eG) [compound 547313]	73

Same assay, conditions: HepaRG cells, electroporation with 5,000 nM antisense oligonucleotide, approximately 24 hours, PKK mRNA by RT-PCR (RTS3454), relative to untreated control cells; Table 6 experiment

Substance	% inhibition [%]
547314 (antisense eG*e[5mC]*eA*e[5mC]*e[5mC]*dT*dG*dT*dT*d[5mC]*dG*dA*dT*dG*dT*eA*e[5mC]*eT*eT*eT) [compound 547314]	73
547315 (antisense eA*eA*e[5mC]*eT*eG*d[5mC]*dA*d[5mC]*d[5mC]*dT*dG*dT*dT*d[5mC]*dG*eA*eT*eG*eT*eA) [compound 547315]	50
547316 (antisense eG*eA*eA*eA*e[5mC]*dT*dG*d[5mC]*dA*d[5mC]*d[5mC]*dT*dG*dT*dT*e[5mC]*eG*eA*eT*eG) [compound 547316]	75
547317 (antisense e[5mC]*eA*eG*eA*eA*dA*d[5mC]*dT*dG*d[5mC]*dA*d[5mC]*d[5mC]*dT*dG*eT*eT*e[5mC]*eG*eA) [compound 547317]	75
547318 (antisense e[5mC]*e[5mC]*eA*eG*eA*dA*dA*d[5mC]*dT*dG*d[5mC]*dA*d[5mC]*d[5mC]*dT*eG*eT*eT*e[5mC]*eG) [compound 547318]	74
547319 (antisense eG*eA*eA*eT*eG*dT*d[5mC]*d[5mC]*dA*dG*dA*dA*dA*d[5mC]*dT*eG*e[5mC]*eA*e[5mC]*e[5mC]) [compound 547319]	62
547320 (antisense eA*eG*eG*eA*eA*dT*dG*dT*d[5mC]*d[5mC]*dA*dG*dA*dA*dA*e[5mC]*eT*eG*e[5mC]*eA) [compound 547320]	73
547321 (antisense eT*e[5mC]*eA*eA*eG*dG*dA*dA*dT*dG*dT*d[5mC]*d[5mC]*dA*dG*eA*eA*eA*e[5mC]*eT) [compound 547321]	53
547322 (antisense e[5mC]*eT*eT*e[5mC]*eA*dA*dG*dG*dA*dA*dT*dG*dT*d[5mC]*d[5mC]*eA*eG*eA*eA*eA) [compound 547322]	65
547323 (antisense eT*eT*eG*e[5mC]*eT*dT*d[5mC]*dA*dA*dG*dG*dA*dA*dT*dG*eT*e[5mC]*e[5mC]*eA*eG) [compound 547323]	56
547324 (antisense e[5mC]*eA*eT*eT*eG*d[5mC]*dT*dT*d[5mC]*dA*dA*dG*dG*dA*dA*eT*eG*eT*e[5mC]*e[5mC]) [compound 547324]	76
547325 (antisense eG*eA*e[5mC]*e[5mC]*eA*d[5mC]*dA*dT*dT*dG*d[5mC]*dT*dT*d[5mC]*dA*eA*eG*eG*eA*eA) [compound 547325]	67
547326 (antisense eA*eT*eG*eA*e[5mC]*d[5mC]*dA*d[5mC]*dA*dT*dT*dG*d[5mC]*dT*dT*e[5mC]*eA*eA*eG*eG) [compound 547326]	48
547327 (antisense eT*eT*eG*eA*eT*dG*dA*d[5mC]*d[5mC]*dA*d[5mC]*dA*dT*dT*dG*e[5mC]*eT*eT*e[5mC]*eA) [compound 547327]	45
547328 (antisense eA*eT*eT*eT*eG*dA*dT*dG*dA*d[5mC]*d[5mC]*dA*d[5mC]*dA*dT*eT*eG*e[5mC]*eT*eT) [compound 547328]	40
547329 (antisense eT*eT*eA*eT*eT*dT*dG*dA*dT*dG*dA*d[5mC]*d[5mC]*dA*d[5mC]*eA*eT*eT*eG*e[5mC]) [compound 547329]	24
547330 (antisense e[5mC]*eT*eT*eA*eT*dT*dT*dG*dA*dT*dG*dA*d[5mC]*d[5mC]*dA*e[5mC]*eA*eT*eT*eG) [compound 547330]	60
547331 (antisense eA*eG*e[5mC]*eA*e[5mC]*dT*dT*dA*dT*dT*dT*dG*dA*dT*dG*eA*e[5mC]*e[5mC]*eA*e[5mC]) [compound 547331]	47
547332 (antisense e[5mC]*eG*eA*eT*eG*dG*d[5mC]*dA*dA*dG*d[5mC]*dA*d[5mC]*dT*dT*eA*eT*eT*eT*eG) [compound 547332]	44

Substance	% inhibition [%]
547333 (antisense eT*eG*eT*e[5mC]*eT*d[5mC]*dG*dA*dT*dG*dG*d[5mC]*dA*dA*dG*e[5mC]*eA*e[5mC]*eT*eT) [compound 547333]	76
547334 (antisense eA*eA*eT*eG*eT*d[5mC]*dT*d[5mC]*dG*dA*dT*dG*dG*d[5mC]*dA*eA*eG*e[5mC]*eA*e[5mC]) [compound 547334]	74
547336 (antisense eT*eT*eT*eA*eT*dA*dA*dA*dT*dG*dT*d[5mC]*dT*d[5mC]*dG*eA*eT*eG*eG*e[5mC]) [compound 547336]	81
547338 (antisense eT*e[5mC]*eA*eA*e[5mC]*dT*d[5mC]*d[5mC]*dT*dT*dT*dA*dT*dA*dA*eA*eT*eG*eT*e[5mC]) [compound 547338]	71
547339 (antisense eT*eA*eT*e[5mC]*eA*dA*d[5mC]*dT*d[5mC]*d[5mC]*dT*dT*dT*dA*dT*eA*eA*eA*eT*eG) [compound 547339]	42
547342 (antisense eA*eT*eT*eA*eA*dA*dA*dT*dT*dG*dA*d[5mC]*dT*d[5mC]*d[5mC]*eT*e[5mC]*eT*e[5mC]*eA) [compound 547342]	66
547343 (antisense e[5mC]*eA*e[5mC]*eA*eT*dT*dA*dA*dA*dA*dT*dT*dG*dA*d[5mC]*eT*e[5mC]*e[5mC]*eT*e[5mC]) [compound 547343]	78
547344 (antisense eG*eA*e[5mC]*eA*e[5mC]*dA*dT*dT*dA*dA*dA*dA*dT*dT*dG*eA*e[5mC]*eT*e[5mC]*e[5mC]) [compound 547344]	80
547345 (antisense eA*eG*eA*e[5mC]*eA*d[5mC]*dA*dT*dT*dA*dA*dA*dA*dT*dT*eG*eA*e[5mC]*eT*e[5mC]) [compound 547345]	80
547346 (antisense eA*e[5mC]*e[5mC]*eT*eT*dA*dG*dA*d[5mC]*dA*d[5mC]*dA*dT*dT*dA*eA*eA*eA*eT*eT) [compound 547346]	57
547347 (antisense eA*e[5mC]*eT*eG*e[5mC]*dT*dA*dA*d[5mC]*d[5mC]*dT*dT*dA*dG*dA*e[5mC]*eA*e[5mC]*eA*eT) [compound 547347]	82
547348 (antisense eA*e[5mC]*eA*e[5mC]*eT*dG*d[5mC]*dT*dA*dA*d[5mC]*d[5mC]*dT*dT*dA*eG*eA*e[5mC]*eA*e[5mC]) [compound 547348]	83
547350 (antisense eG*eG*e[5mC]*eA*eT*dT*d[5mC]*dT*dT*d[5mC]*dA*dA*d[5mC]*dA*d[5mC]*eT*eG*e[5mC]*eT*eA) [compound 547350]	96
547351 (antisense eT*eT*eT*eG*eG*d[5mC]*dA*dT*dT*d[5mC]*dT*dT*d[5mC]*dA*dA*e[5mC]*eA*e[5mC]*eT*eG) [compound 547351]	92
547352 (antisense e[5mC]*e[5mC]*eG*eG*eT*dA*d[5mC]*dT*d[5mC]*dT*dG*d[5mC]*d[5mC]*dT*dT*eG*eT*eG*eA*eA) [compound 547352]	94
547354 (eA*eT*eT*eG*eT*dT*d[5mC]*d[5mC]*dG*dG*dT*dA*d[5mC]*dT*d[5mC]*eT*eG*e[5mC]*e[5mC]*eT; antisense) [compound 547354]	89
547355 (e[5mC]*eA*eA*eT*eT*dG*dT*dT*d[5mC]*d[5mC]*dG*dG*dT*dA*d[5mC]*eT*e[5mC]*eT*eG*e[5mC]; antisense) [compound 547355]	77
547356 (eT*eA*eA*eT*eA*dG*dG*d[5mC]*dA*dA*dT*dT*dG*dT*dT*e[5mC]*e[5mC]*eG*eG*eT; antisense) [compound 547356]	83
